Data from patent US20250099466A1 (BRISTOL-MYERS SQUIBB COMPANY, priority 2021, published 2025).

How the values were obtained:
[1] = tested on: electrically induced carotid artery thrombus (ECAT) in rabbits; assay: Treatment rabbit ECAT model (dosing 15 minutes after vessel injury); format: in vivo; details: for carotid blood flow at 90 minutes (% of control carotid blood flow): n=6; for reduction in thrombus weight: treatment ECAT
Method: The rabbit ECAT model as described by Wong et al., Nonpeptide factor Xa inhibitors: II.
Male New Zealand white rabbits were anesthetized with ketamine (50 mg/kg+50 mg/kg/h intramuscularly) and xylazine (10 mg/kg+10 mg/kg/h intramuscularly). Thrombosis was induced by electrical stimulation of the control carotid artery for 3 minutes at 4 mA using an external stainless-steel bipolar electrode. Carotid blood flow was measured with an electromagnetic flow probe continuously over a 90-minute period to monitor thrombosis induced occlusion. Integrated carotid blood flow was measured by the area under the flowtime curve (see Wong et al.). In addition, thrombus from the injured artery was removed, blotted twice on a weighing paper to remove residual fluid, and weighed.
To achieve a stable plasma level with minimum experimental variability, compounds were administered by IV infusion. […] The IV infusion was continued throughout the experiment for both models.
Integrated blood flow, thrombus weight, aPTT (activated partial thromboplastin time), TT (thrombin time), and PT (prothrombin time) were also measured.

aPTT = aPTT prolongation in healthy volunteers; format: in vivo, human; details: 50-mg once daily dose, for about 24 hours

SMILES: C[C@@H]1CCC[C@H](n2cnc(-c3cc(Cl)ccc3-n3cc(Cl)nn3)cc2=O)c2cc(ccn2)-c2c(cnn2C(F)F)NC1=O [milvexian, (5R,9S)-9-(4-(5-chloro-2-(4-chloro-1H-1,2,3-triazol-1-yl)phenyl)-6-oxopyrimidin-1(6H)-yl)-21-(difluoromethyl)-5-methyl-21H-3-aza-1(4,2)-pyridina-2(5,4)-pyrazolacyclononaphan-4-one]
- carotid blood flow at 90 minutes (% of control carotid blood flow) ([1]; 0.25+0.17 mg/kg+mg/kg/h IV at 15 minutes after initiation of thrombosis): 39±10%
- reduction in thrombus weight ([1]; 0.25+0.17 mg/kg+mg/kg/h IV): 25±7%
- carotid blood flow at 90 minutes (% of control carotid blood flow) ([1]; 1+0.67 mg/kg+mg/kg/h IV at 15 minutes after initiation of thrombosis): 66±2%
- reduction in thrombus weight ([1]; 1+0.67 mg/kg+mg/kg/h IV): 61±6%
- prolongation of aPTT (aPTT): 1.5 fold
